In patent US20110039763A1, “TARGETED ANTIMICROBIAL MOIETIES” (C3 JIAN, INC., priority 2009, published 2011):
Entries after “also recorded” stand apart in the source; their conditions may differ.

Experiments:
microorganisms [1] = assay: Peptide activities: targeting/binding, antimicrobial, growth or phenotype altering (Tables 7, 8); format: cell-based; details: peptides having multiple activities
microorganisms [2] = assay: Targeting peptide binding to target microorganisms (Tables 3, 10, 12); details: microorganism(s) the targeting peptide binds; binding in aqueous buffers varied with peptide solubility, preferably 1x PBS
microorganisms [3] = assay: Morphology, biofilm and growth disrupting peptides (Table 5); format: cell-based; set-up: key: A: Peptide aggregates; B: Less hyphal formation; Clumps; Diffuse clumps and small polyps; F: Diffuse growth; H: Thin; I: Growth inhibition; Microcolony formation; Rippled; Small polyps; Thick; W: Halo formation on top, microlonies on bottom
Description: In certain embodiments peptides that induce alterations in phenotype or other biological activities can also be used as antimicrobial effector moieties.

Row | Substance | Activities (microorganisms [1]) | Target(s) (microorganisms [2]) | Organism, effect (microorganisms [3]; S. pneumoniae) | Organism, effect (microorganisms [3]; MRSA) | Organism, effect (microorganisms [3]; E. coli) | Organism, effect (microorganisms [3]; M. luteus) | Organism, effect (microorganisms [3]; P. mirabilis) | Organism, effect (microorganisms [3]; S. epidermidis) | Organism, effect (microorganisms [3]; S. mutans) | Organism, effect (microorganisms [3]; P. aeruginosa) | Organism, effect (microorganisms [3]; P. gingivalis) | Organism, effect (microorganisms [3]; F. nucleatum)
1 | PF-737: peptide having multiple activities (KSSGSSASASSTAGGSSSK; Peptide with targeting and/or antimicrobial activity) | G B | S. epidermidis; also recorded: S. pneumoniae | S. pneumoniae (D) |  |  |  |  |  |  |  |  | 
2 | PF-738: peptide having multiple activities (KSGATSAASGAKSGASS; Peptide with targeting and/or antimicrobial activity) | G B | S. epidermidis; also recorded: C. albicans; also recorded: C. jeikeium |  | MRSA (M) |  |  |  |  |  |  |  | 
3 | PF-741: peptide having multiple activities (AKREDTVAAQIGANILNLIQ; Peptide with targeting and/or antimicrobial activity) | G B | S. epidermidis and M. luteus and P. mirabilis and P. aeruginosa and C. albicans and MRSA and S. pneumoniae and E. faecalis | S. pneumoniae (D) | MRSA (C) | E. coli (C) | M. luteus (C) | P. mirabilis (C) | S. epidermidis (C) | S. mutans (D) |  |  | 
4 | PF-744: peptide having multiple activities (LGVGTFVGKVLIKNQQKQKSKKKAQ; Peptide with targeting and/or antimicrobial activity) | G B | S. epidermidis and M. luteus and E. coli and MRSA and S. pneumoniae and E. faecalis and C. jeikeium | S. pneumoniae (H) |  |  |  |  |  |  |  |  | 
5 | PF-746: peptide having multiple activities (FLGNSQYFTRK; Peptide with targeting and/or antimicrobial activity) | G B | S. epidermidis; also recorded: M. luteus; also recorded: E. coli; also recorded: C. albicans; also recorded: S. pneumoniae; also recorded: E. faecalis; also recorded: C. jeikeium | S. pneumoniae (C) | MRSA (C) | E. coli (C) | M. luteus (C) |  | S. epidermidis (C) | S. mutans (D) | P. aeruginosa (A) |  | 
6 | PF-756: peptide having multiple activities (DALLRLA; Peptide with targeting and/or antimicrobial activity) | G B | S. epidermidis and M. luteus and C. albicans and MRSA and C. jeikeium | S. pneumoniae (A) |  |  |  |  |  |  |  |  | 
7 | PF-757: peptide having multiple activities (PQAISSVQQNA; Peptide with targeting and/or antimicrobial activity) | G B | M. luteus and C. albicans and MRSA | S. pneumoniae (H) |  |  |  |  |  |  |  |  | 
8 | PF-760: peptide having multiple activities (DHITLDDYEIHDGFNFELYYG; Peptide with targeting and/or antimicrobial activity) | G B | S. epidermidis; also recorded: M. luteus | S. pneumoniae (C) | MRSA (M) |  |  |  | S. epidermidis (M) |  |  |  | 
9 | PF-761: peptide having multiple activities (SKFELVNYASGCSCGADCKCASETECKCASKK; Peptide with targeting and/or antimicrobial activity) | G B | S. epidermidis and M. luteus and P. mirabilis and P. aeruginosa and C. albicans and MRSA and S. pneumoniae and E. faecalis | S. pneumoniae (C) | MRSA (D) | E. coli (C) | M. luteus (C) |  | S. epidermidis (C) | S. mutans (D) | P. aeruginosa (C) |  | 
10 | PF-762: peptide having multiple activities (PAPAPSAPAPAPEQPEQPA; Peptide with targeting and/or antimicrobial activity) | G B | M. luteus; also recorded: C. albicans | S. pneumoniae (H) |  |  |  |  |  |  |  |  | 
11 | PF-764: peptide having multiple activities (GYFEPGKRD; Peptide with targeting and/or antimicrobial activity) | G B | S. epidermidis and M. luteus and C. albicans and MRSA and S. pneumoniae and E. faecalis and C. jeikeium | S. pneumoniae (H) | MRSA (D) |  |  |  |  |  |  |  | 
12 | PF-776: peptide having multiple activities (VSILLYLSATIILPNVLRLLVARAIIVRV; Peptide with targeting and/or antimicrobial activity) | G B | S. epidermidis and M. luteus and P. mirabilis and C. albicans and MRSA and S. pneumoniae and E. faecalis | S. pneumoniae (C) | MRSA (D) | E. coli (C) | M. luteus (C) |  | S. epidermidis (D) | S. mutans (D) |  |  | 
13 | PF-C052: peptide having multiple activities (SRFRNGV; Peptide with targeting and/or antimicrobial activity) | G B | A. naeslundii; also recorded: F. nucleatum; also recorded: S. mutans |  |  |  |  |  |  |  |  | P. gingivalis (H) | 
14 | PF-C055: peptide having multiple activities (YNLSIYIYFLHTITIAGLITLPFII; Peptide with targeting and/or antimicrobial activity) | G B | A. naeslundii; also recorded: F. nucleatum; also recorded: P. gingivalis; also recorded: S. mutans |  |  |  |  |  |  | S. mutans (I) |  |  | F. nucleatum (T)
15 | PF-C057: peptide having multiple activities (YFWWYWVQDCIPYKNNEVWLELSNNMK; Peptide with targeting and/or antimicrobial activity) | G B | A. naeslundii; also recorded: F. nucleatum; also recorded: P. gingivalis; also recorded: S. mutans |  |  |  |  |  |  | S. mutans (I) |  |  | 
16 | PF-C062: peptide having multiple activities (PLARATEVVATLFIICSLLLYLTR; Peptide with targeting and/or antimicrobial activity) | G B | A. naeslundii; also recorded: F. nucleatum; also recorded: P. gingivalis; also recorded: S. mutans; also recorded: T. denticola |  |  |  |  |  |  | S. mutans (I) |  |  | F. nucleatum (T)
17 | PF-C064: peptide having multiple activities (DEEALEMGANLYAQFAIDFLNSKK; Peptide with targeting and/or antimicrobial activity) | G B | A. naeslundii; also recorded: F. nucleatum; also recorded: P. gingivalis; also recorded: S. mutans; also recorded: T. denticola |  |  |  |  |  |  |  |  |  | F. nucleatum (T)
18 | PF-C069: peptide having multiple activities (NALMLREMQLAKNIKVEVTDVLSNKKYC; Peptide with targeting and/or antimicrobial activity) | G B | A. naeslundii; also recorded: F. nucleatum; also recorded: P. gingivalis; also recorded: S. mutans; also recorded: T. denticola |  |  |  |  |  |  |  |  |  | F. nucleatum (T)
19 | PF-C071: peptide having multiple activities (QVIVKIL; Peptide with targeting and/or antimicrobial activity) | G B | A. naeslundii; also recorded: F. nucleatum; also recorded: S. mutans |  |  |  |  |  |  |  |  |  | F. nucleatum (T)
20 | PF-C075: peptide having multiple activities (KALVISVFAIVFSIIFVKFFYWRDKK; Peptide with targeting and/or antimicrobial activity) | G B | A. naeslundii; also recorded: F. nucleatum; also recorded: P. gingivalis; also recorded: S. mutans; also recorded: T. denticola |  |  |  |  |  |  | S. mutans (F) |  | P. gingivalis (R) | F. nucleatum (T)
21 | PF-C084: peptide having multiple activities (FFSVIFLFGLNYLICNSPLFNILR; Peptide with targeting and/or antimicrobial activity) | G B | A. naeslundii; also recorded: F. nucleatum; also recorded: P. gingivalis; also recorded: S. mutans |  |  |  |  |  |  | S. mutans (F) |  | P. gingivalis (R) | F. nucleatum (T)
22 | PF-C088: peptide having multiple activities (DIANNILNSVSERLIIA; Peptide with targeting and/or antimicrobial activity) | G B | A. naeslundii; also recorded: F. nucleatum; also recorded: P. gingivalis; also recorded: S. mutans; also recorded: T. denticola |  |  |  |  |  |  | S. mutans (I) |  | P. gingivalis (R) | F. nucleatum (H)
23 | PF-C131: peptide having multiple activities (chain 1 QWIVAKREIRMHIYCHISVIHVIIFFG; chain 2 QWIVAKREIRMHIYCHISVIHVIIFFG; Peptide with targeting and/or antimicrobial activity) | G B | A. naeslundii; also recorded: F. nucleatum; also recorded: P. gingivalis; also recorded: S. mutans |  |  |  |  |  |  | S. mutans (F) |  |  | F. nucleatum (T)
